Like-named read-outs stand apart in the source and are kept apart here.
Legend:
human Cx26 HCs = biological target: T1, human Cx26 HCs (Homo sapiens, UniProt P29033); assay: Cx26-dependent growth complementation assay in E. coli LB2003; type: cell-based
T1 construct: expressed in transfected cells; host or cells: E. coli LB2003 (carrying pREP4), transformed with pQE-Cx26, IPTG-induced
Protocol: These derivatives were prepared by sequential benzylation and methylation followed by reduction of azido groups or hydrogenolysis of the Bn. […] Connexin HC inhibition was conducted using a bacteria-based assay of HC function^39. In this assay, Cx26 HCs are expressed in E. coli LB2003 cells, which lack three major K^+ uptake systems (Kdp, Kup and Trk), and as a result they cannot grow in low-[K^+] media^39-41. However, growth of this E. coli strain in low-[K^+] medium can be rescued by expression of K^+-permeable channels such as connexin HCs^39, 42-43. Under the conditions of the assay (LB2003 cells expressing HCs and grown in low-K^+ medium), inhibition of the HCs reduces or abolishes growth^39, 42-43. This is a simple assay where bacterial growth in multi-well plates can be followed by measuring the absorbance at 600 nm (OD600)^29.
LB2003 cells generously provided by Dr. E. P. Bakker (Osnabruk University, Osnabruk, Germany) were transformed with the plasmid pQE-Cx26 (human Cx26 into pQE60) and pREP4. […] LB2003 cells cannot grow in low-[K^+] media because of insufficient K^+ uptake for growth due to the knockout of three key K^+ transporters (Atrk, Akup, Akdp strain)^2-4. Details and validation of the growth complementation assay have been published recently^2. In brief, competent LB2003 containing the pREP4 plasmid were transformed with pQE-Cx26. These cells were grown overnight in Luria-Bertani medium (BD, Franklin Lakes, NJ, USA) supplemented with 100 mM KCl (to allow growth) and 0.4 mg/mL ampicillin, and then washed four times with NLM (see below), to remove residual K^+ from the Luria-Bertani medium. The washed cells were resuspended in complementation growth medium to an OD600 of 0.2. NLM contained 46 mM Na2HPO4, 23 mM NaH2PO4, 8 mM (NH4)2SO4, 0.4 mM MgSO4, 0.012 mM FeSO4, 1 mM sodium citrate, 44 mM glucose and 0.006 mM thiamine hydrochloride, pH 7.0. KLM had the same composition that NLM except for the equimolar replacement of Na^+ with K^+. For growth complementation we used NLM+4 mM KCl, and Cx26 expression was induced with 0.5 mM IPTG at the time of dilution to OD600=0.2. For the assay, the cells were seeded in 96-well plates and were incubated at 30° C., with shaking at 500 rpm. OD600 was measured after 18-h incubation in a plate reader. The initial OD600=0.2 was subtracted for growth calculations. Data are presented as means±SEM. Statistically significant differences were calculated by the Student t-test for unpaired data. Data were obtained from at least 3 independent experiments, with 3 repeats per experiment.

Cx43 HCs = biological target: T2, Cx43 HCs (Homo sapiens, UniProt P17302); assay: Cx43-dependent growth complementation assay in E. coli LB2003; type: cell-based; settings: for Cx43/Cx26 Selectivity: IC50 Cx26/IC50 Cx43
T2 construct: expressed in transfected cells

[1] = 4″,6″-disubstituted AKs, Table 5, read-out: Cx26 IC50
[2] = K46 members, the 20th table, read-out: IC50 (μM) against Cx26
[3] = first Table 2, read-out: IC50, inhibition of Cx26 by synthetic AGs
[4] = 4″,6″-disubstituted AKs, Table 5, read-out: Cx43 IC50
[5] = K46 members, the 20th table, read-out: IC50 (μM) against Cx43
[6] = the 12th table, Hill fit, mean ± SEM, some n = 1, read-out: Cx43 IC50
[7] = K members, the 21st table, read-out: Cx43 % inhibition
[8] = Table 3, read-out: Cx243% inhibition
[9] = Table 6, read-out: Cx43 (% inhibition)

T2 sequence (P17302 whole entry): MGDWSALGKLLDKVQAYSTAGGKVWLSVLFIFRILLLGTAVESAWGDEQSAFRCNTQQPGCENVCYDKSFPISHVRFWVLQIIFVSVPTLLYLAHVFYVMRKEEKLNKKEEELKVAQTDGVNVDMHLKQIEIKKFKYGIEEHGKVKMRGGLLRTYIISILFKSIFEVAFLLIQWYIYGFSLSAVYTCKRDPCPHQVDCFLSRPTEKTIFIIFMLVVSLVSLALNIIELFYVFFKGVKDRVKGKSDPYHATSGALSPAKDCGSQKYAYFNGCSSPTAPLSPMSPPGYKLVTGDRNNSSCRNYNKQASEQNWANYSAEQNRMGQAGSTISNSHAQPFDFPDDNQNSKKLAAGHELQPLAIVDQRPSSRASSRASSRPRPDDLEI

Row | inhibition at 15 µM (human Cx26 HCs; Table 3) | inhibition at 50 µM (human Cx26 HCs; Table 3) | inhibition at 15 µM (Cx43 HCs; [7]) | inhibition at 15 µM (Cx43 HCs; [8]) | inhibition at 50 µM (Cx43 HCs; [7]) | inhibition at 50 µM (Cx43 HCs; [8]) | inhibition at 15 µM (human Cx26 HCs; Table 6) | inhibition at 50 µM (human Cx26 HCs; Table 6) | inhibition at 15 µM (Cx43 HCs; [9]) | inhibition at 50 µM (Cx43 HCs; [9]) | Structure (SMILES) | IC50 (human Cx26 HCs; [3]) | IC50 (Cx43 HCs; [4]) | Cx43/Cx26 Selectivity (Cx43 HCs; Table 5) | IC50 (Cx43 HCs; [6]) | also measured
1 |  |  |  |  |  |  |  |  |  |  | NCC1OC(OC2C(N)CC(N)C(OC3OC(COCc4ccc(Cl)cc4)C(OCc4ccc(Cl)cc4)C(N)C3O)C2O)C(O)C(O)C1O (centres unmarked) [Compound 12, 4″,6″-Di-O-(4-chlorobenzyl) kanamycin] | 2.5 ± 0.6 µM | 17.1 ± 1.7 µM | 0.15 | 20.3 µM | IC50 (human Cx26 HCs; [1]): 2.5 ± 0.6 µM; IC50 (human Cx26 HCs; [2]): 2.5 ± 0.6 µM; IC50 (Cx43 HCs; [5]): 20.3 µM; Cx43 Imax (maximal inhibition) (Cx43 HCs; the 12th table, Hill fit): 133%
2 |  |  |  |  |  |  |  |  |  |  | NC[C@H]1O[C@H](O[C@H]2[C@H](O)[C@@H](O[C@@H]3O[C@H](COCc4ccc(F)cc4)[C@@H](OCc4ccc(F)cc4)[C@H](N)[C@H]3O)[C@H](N)C[C@@H]2N)[C@H](O)[C@@H](O)[C@@H]1O [Compound 13, 4″,6″-Di-O-(4-flurobenzyl) kanamycin] | 8.1 ± 0.5 µM | 26.6 ± 7.8 µM | 0.30 | 26.6 ± 7.8 µM | IC50 (human Cx26 HCs; [1]): 8.1 ± 0.5 µM; IC50 (human Cx26 HCs; [2]): 8.1 ± 0.5 µM; IC50 (Cx43 HCs; [5]): 26.6 ± 7.8 µM; Cx43 Imax (maximal inhibition) (Cx43 HCs; the 12th table, Hill fit): 110 ± 33%
3 |  |  |  |  |  |  |  |  |  |  | NCC1OC(OC2C(N)CC(N)C(OC3OC(COCc4ccc5ccccc5c4)C(OCc4ccc5ccccc5c4)C(N)C3O)C2O)C(O)C(O)C1O (centres unmarked) [Compound 14, 4″,6″-Di-O-(2-naphthalenmethyl) kanamycin] | 4.9 ± 0.2 µM | 6.2 ± 4.4 µM | 1.07 |  | 
4 | 26.8 ± 1.7% | 49.2 ± 5.5% | 38.1 ± 2.8% | 38.1 ± 2.8% | 51 ± 8.8% | 51 ± 8.8% |  |  |  |  | Cc1ccc(S(=O)(=O)OC[C@H]2OC(OC3C(N)CC(N)C(O[C@H]4OC(CN)[C@@H](O)C(O)C4O)[C@@H]3O)[C@H](O)C(N)C2O)cc1 (some centres unmarked) [Compound K19] |  |  |  |  | 
5 |  |  | 8.9% |  | 89.4% |  |  |  |  |  | NCC1O[C@H](O[C@@H]2C(N)C[C@@H](N)C(O[C@H]3OC(COc4ccc(-c5nc6ccccc6[nH]5)cc4)[C@@H](O)C(N)C3O)C2O)C(O)C(O)[C@@H]1O (some centres unmarked) [Compound K30] |  |  |  | 8.9 µM | 
6 | 14.6 ± 4.3% | 69.4 ± 4.2% | 36 ± 3.9% | 36 ± 3.9% | 46.7 ± 7.8% | 46.7 ± 7.8% | 14.6 ± 4.3% | 69.4 ± 4.2% | 36 ± 3.9% | 46.7 ± 7.8% | NCC1O[C@H](OC2C(N)CC(N)C(OC3O[C@H](COc4ccccc4)C(O)C(N)[C@H]3O)[C@H]2O)C(O)C(O)[C@@H]1O (some centres unmarked) [Compound K34] |  |  |  |  | 
7 | 35.9 ± 2.9% | 62.6 ± 9.2% | 36.5 ± 0.6% | 36.5 ± 0.6% | 49.3 ± 2.2% | 49.3 ± 2.2% | 35.9 ± 2.9% | 62.6 ± 9.2% | 36.5 ± 0.6% | 49.3 ± 2.2% | NCC1O[C@H](OC2C(N)CC(N)C(OC3O[C@H](COc4ccc([N+](=O)[O-])cc4)C(O)C(N)[C@H]3O)[C@H]2O)C(O)C(O)[C@@H]1O (some centres unmarked) [Compound K36] |  |  |  |  | 
8 | 37.1 ± 13.5% | 81 ± 1.7% | 45.3 ± 2.7% | 45.3 ± 2.7% | 55.1 ± 5.8% | 55.1 ± 5.8% |  |  |  |  | NCC1O[C@H](OC2C(N)CC(N)C(OC3O[C@H](CNC(=O)c4ccccc4-c4c5ccc(=O)cc-5oc5cc(O)ccc45)C(O)C(N)[C@H]3O)[C@H]2O)C(O)C(O)[C@@H]1O (some centres unmarked) [Compound K40] |  |  |  |  | 
9 | 15.9 ± 4.2% | 36.5 ± 4.7% | 20 ± 7.4% | 20 ± 7.4% | 34.8 ± 7.8% | 34.8 ± 7.8% | 15.9 ± 4.2% | 36.5 ± 4.7% | 20 ± 7.4% | 34.8 ± 7.8% | COc1ccc(OC[C@H]2OC(OC3C(N)CC(N)C(O[C@H]4OC(CN)[C@@H](O)C(O)C4O)[C@@H]3O)[C@H](O)C(N)C2O)cc1 (some centres unmarked) [Compound K81] |  |  |  |  | 
10 |  |  |  |  |  |  |  |  |  |  | NC[C@@H]1O[C@H](O[C@H]2[C@@H](O)[C@H](O[C@@H]3[C@@H](O)[C@H](N)C[C@H](N)[C@H]3O[C@H]3O[C@H](CO)[C@@H](O)[C@H](O)[C@H]3N)O[C@@H]2CO)[C@H](N)[C@@H](O)[C@@H]1O [Paromomycin, reference compound] |  |  |  |  | Cx43/Cx26 Selectivity (Cx43 HCs; the 16th table): 0.21

— patent US12286452B2, “Amphiphilic aminoglycoside connexin hemichannel inhibitors” (Texas Tech University System, priority 2018, dated 2025)
